The values that follow come from patent US11318190B2, “Methods and compositions for treating liver disease” (UNITED STATES GOVERNMENT AS REPRESENTED BY THE DEPARTMENT …, priority 2017, dated 2022).

One test has as its system large IMCLs. The test can be described thus: Large IMCLs treated with secretin with/without LY2109761, or with TGF-β1 (Example 2). The format is cell-based, mouse. The source says: Cholangiocytes were obtained by immunoaffinity separation as described herein above, using a monoclonal antibody (a gift from Dr. R. Faris, Brown University, Providence, R.I.) that is expressed by all intrahepatic cholangiocytes. HSCs from the selected groups of mice were isolated by LCM as described previously in Wu, N et al., The secretin/secretin receptor axis modulates liver fibrosis through changes in transforming growth factor-beta1 biliary secretion in mice, Hepatology (Baltimore, Md.) 64(3):865-879 (2016). Briefly, frozen liver sections (n=3, 10 μm thick) were incubated overnight with an anti-desmin (a marker of stellate cells) antibody. Then, desmin-positive cells were dissected from the slides using a LCM system Leica LMD7000 (Buffalo Grove, Ill.) and were collected before RNA extraction with the Arcturus PicoPure RNA isolation kit (Thermo Fisher Scientific CO, Mountain View, Calif.). The in vitro studies were performed in: (I) immortalized murine cholangiocyte lines derived from large cholangiocytes lining large ducts (IMCLs); and (ii) human hepatic stellate cell lines (HHSteCs; ScienCell Research Laboratories, Carlsbad, Calif.).
WT mice were treated for 1 wk with saline or secretin (Sct; 2.5 nmoles/kg body weight per day) before collecting cholangiocytes, HSCs and cholangiocyte supernatants. The levels of TGF-β1 were measured in short-term (6-hour) cultures of cholangiocytes by ELISA kits. Subsequently, we measured: (i) liver fibrosis by immunofluorescence for Col1a1 in liver sections and real-time PCR for TGF-β1, TFG-β1R, Col1a1, α-SMA and Fn1 in cholangiocytes and HSCs; and (ii) cellular senescence by immunofluorescence in liver sections for p16 and real-time PCR for p16 and p21 in cholangiocytes and HSC.
(§1) Biliary supernatants were obtained from normal and BDL WT mice and Sct^−/−, SR^−/− and Sct^−/−/SR^−/− BDL mice as well as normal WT mice treated with saline or secretin. HHSteCs were incubated with the aforementioned biliary supernatants (containing different levels of TGF-β1) for 24 hr (in the absence or presence of LY2109761) before measuring the expression of senescence and fibrosis genes by real-time PCR. Furthermore, HHSteCs were incubated with the supernatant of large IMCLs treated for 0.2% bovine serum albumin (basal) or secretin (10 nM) with/without LY2109761 for 6 hr before measuring the mRNA expression of fibrosis and senescence genes. To provide direct evidence that TGF-β1 directly modulates fibrosis and senescence of IMCLs and HHSteCs, these cells were stimulated with TGF-β1 (10 nM) for 24 hr before measuring the expression of PCNA as well as fibrosis and senescence genes by real-time PCR.

Test [1] has as its system HHSteCs. The test can be described thus: HHSteCs incubated with biliary/IMCL supernatants with/without LY2109761, or with TGF-β1 (Example 2). The format is cell-based, human. As to the method: as §1
Test [2] concerns HHSteCs. The test can be described thus: HHSteCs treated with cholangiocyte supernatants with/without LY2109761, TGF-β1 or r-VEGFA (Example 4). The format is cell-based, human. The following applies: 12 hr. As for the experimental part:
(§2) Cholangiocytes were obtained by immunoaffinity separation, Cholangiocytes were obtained by immunoaffinity separation as described herein above, using a monoclonal antibody (a gift from Dr. R. Faris, Brown University, Providence, R.I.) that is expressed by all intrahepatic cholangiocytes. Cell viability (greater than 97%) was assessed by trypan blue exclusion. HSCs were isolated by LCM as described herein above. Frozen liver sections (n=3, 10 μm thick) were incubated overnight with an antibody against desmin (marker of stellate cells). Following staining, desmin-positive HSCs were dissected from the slides by a LCM system Leica LMD7000 (Buffalo Grove, Ill.) and collected into a PCR tube before being analyzed. The RNA from HSCs was extracted with the Arcturus PicoPure RNA isolation kit (Thermo Fisher Scientific CO, Mountain View, Calif.). The in vitro studies were performed in our immortalized murine biliary cell lines (IMCLs) and human hepatic stellate cell lines (HHSteCs, Sciencell, Carlsbad, USA).
In biliary supernatants, the levels of TGF-β1 were measured by ELISA kits. HHSteCs were incubated with cholangiocyte supernatants from the selected groups of animals for 12 hr (in the absence or presence of LY2109761, 10 μM, a TGF-β1 receptor antagonist, Cayman Chemical, Ann Arbor, Mich.) before measuring the expression of VEGF-A and senescent and fibrosis genes by qPCR. To determine that Sct increases TGF-β1 levels by a microRNA 125b-dependent mechanism, IMCLs were treated with Sct (10 nM in the absence/presence of a microRNA 125b mimic precursor, 5 μM) for 12 hr before measuring TGF-β1 mRNA expression (by qPCR) and secretion by ELISA kits. To provide conclusive evidence that TGF-β1 directly modulates the function IMCLs and HHSteCs, these cells were stimulated with TGF-β1 (10 nM) for 12 hr before measuring the expression of VEGF-A and senescent and fibrosis genes by qPCR. […] We also evaluated by immunofluorescence the expression of VEGFR-2 in cell smears of IMCLs and HHSteCs. […]

A further test concerns the target TGF-β receptor type II (Homo sapiens, UniProt P37173). The following applies: cited from earlier work.
The subject of another test is IMCLs. The test can be described thus: IMCLs treated with Sct with/without microRNA 125b mimic precursor, TGF-β1 or r-VEGFA (Example 4). The class given is cell-based, mouse. The settings on record: TGF-β1 10 nM or r-VEGFA 100 nM, 12 hr. As to the method:
as §2
In biliary supernatants, the levels of TGF-β1 were measured by ELISA kits. […] We also evaluated by immunofluorescence the expression of VEGFR-2 in cell smears of IMCLs and HHSteCs. […]

TGF-β receptor type II, sequence (P37173 23-567): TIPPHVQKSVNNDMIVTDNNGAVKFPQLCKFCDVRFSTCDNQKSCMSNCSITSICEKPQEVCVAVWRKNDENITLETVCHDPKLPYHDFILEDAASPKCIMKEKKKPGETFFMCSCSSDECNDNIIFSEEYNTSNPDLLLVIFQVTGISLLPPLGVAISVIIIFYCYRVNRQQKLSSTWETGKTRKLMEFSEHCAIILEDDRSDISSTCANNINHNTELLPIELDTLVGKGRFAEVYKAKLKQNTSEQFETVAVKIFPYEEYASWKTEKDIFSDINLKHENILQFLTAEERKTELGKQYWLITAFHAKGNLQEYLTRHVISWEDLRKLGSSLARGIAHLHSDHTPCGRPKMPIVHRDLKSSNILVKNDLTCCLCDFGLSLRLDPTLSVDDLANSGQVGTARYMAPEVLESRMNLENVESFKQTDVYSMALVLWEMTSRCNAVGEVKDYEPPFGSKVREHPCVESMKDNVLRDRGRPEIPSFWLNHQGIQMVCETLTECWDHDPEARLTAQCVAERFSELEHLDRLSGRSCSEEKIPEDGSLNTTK

On to `c1ccc(-c2nn3c(c2-c2ccnc4cc(OCCN5CCOCC5)ccc24)CCC3)nc1` [LY2109761], for which the “effect of preincubation on secretin-induced TGF-β1 secretion and fibrosis/senescence genes of large IMCLs” value in the test with large IMCLs (LY2109761 10 nM) is “prevented”. For the same compound, the “effect of preincubation on fibrosis/senescence gene changes in HHSteCs” value in the test with HHSteCs [1] (before supernatant from secretin-treated WT mice) is reported as “reversed”. Besides, in the test with HHSteCs [1] (supernatant of secretin-treated large IMCLs), the “effect of preincubation on fibrosis/senescence gene changes of HHSteCs” value was “reversed”. Also, in the test with HHSteCs [2] (LY2109761 10 μM, cholangiocyte supernatants from Mdr2−/− mice), the “effect of preincubation on VEGF-A, fibrosis and senescence gene changes in HHSteCs” value is reported as “reversed”. On TGF-β receptor type II, the Ki was 300 nM.

Take “TGF-β1: transforming growth factor-β1 used to stimulate IMCLs and HHSteCs (10 nM)”: in the test on large IMCLs (TGF-β1 10 nM, 24 hr), the “PCNA mRNA expression of large IMCLs” value is recorded as “decreased”; the “expression of fibrosis and senescence genes of large IMCLs” value is “increased”. In the test on HHSteCs [1] (direct TGF-β1 10 nM, 24 hr), the “fibrosis gene expression in HHSteCs” value is listed as “stimulates” and the “senescence gene expression in HHSteCs” value is “reduces”. Further, the “expression of VEGF-A, fibrosis and senescence genes in IMCLs” value with IMCLs is reported as “increased”. For the same compound, in the test with HHSteCs [2] (TGF-β1 10 nM or r-VEGFA 100 nM), the “expression of VEGF-A, fibrosis genes in HHSteCs” value is “increased” and the “senescence genes in HHSteCs” value is reported as “decreased”.

One may read the Ki as the dissociation constant of the complex between target and ligand, obtained from inhibition or displacement.
